The assay deals with P388 leukemia ip, CD2F1 mice, survival T/C. Briefly: NCI In Vivo Anticancer Drug Screen. Data for tumor model P388 Leukemia (intraperitoneal) in CD2F1 (CDF1) mice. The settings on record: endpoint: median survival time, higher = longer survival. The method in brief: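 Mice carrying the transplanted tumor received test compound or vehicle. Survival was recorded in each group, and the value is the treated-group measurement divided by that of the vehicle-treated control group.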

[1] abbreviates: dose: 100.0 mg/kg/injection, schedule: Q04DX003 (ip), vehicle: Klucel (hydroxypropylcellulose) (HPC).
[2] abbreviates: dose: 200.0 mg/kg/injection, schedule: Q04DX003 (ip), vehicle: Klucel (hydroxypropylcellulose) (HPC).
Where [3] appears, read: dose: 400.0 mg/kg/injection, schedule: Q04DX003 (ip), vehicle: Klucel (hydroxypropylcellulose) (HPC).

Among the data in PubChem BioAssay AID330 (DTP/NCI, 2004) are T/C values, retold here.

Several values for one entry are separate records, joined by “and”; a condition that tells them apart may be missing. Equal values may be shown once. Toxic doses and inconclusive results are not listed.

In the case of `OC1OC(Cn2c3ccccc3c3ccccc32)C(O)C(O)C1O` (stereo not given), the T/C runs as follows: (dose: 50.0 mg/kg/injection, schedule: Q01DX001 (ip), vehicle: saline with Tween-80) 100 % of control; (dose: 100.0 mg/kg/injection, schedule: Q01DX001 (ip), vehicle: saline with Tween-80) 107 % of control; (dose: 200.0 mg/kg/injection, schedule: Q01DX001 (ip), vehicle: saline with Tween-80) 114 % of control.

With `C=C1C(C2=[N+]([O-])CCN2O)OC2OC(C)(C)OC12` (stereo not given), the T/C (dose: 60.0 mg/kg/injection, schedule: Q01DX005 (ip), vehicle: Klucel (hydroxypropylcellulose) (HPC)) was 93 % of control; the T/C (dose: 120.0 mg/kg/injection, schedule: Q01DX005 (ip), vehicle: Klucel (hydroxypropylcellulose) (HPC)) is 101 % of control; the T/C (dose: 240.0 mg/kg/injection, schedule: Q01DX005 (ip), vehicle: Klucel (hydroxypropylcellulose) (HPC)) was 101 % of control.

Regarding `COC(=O)c1ccc(SCC(=O)c2ccc([N+](=O)[O-])o2)cc1`, the T/C (dose: 50.0 mg/kg/injection, schedule: Q01DX009 (ip), vehicle: suspension in saline) is 88 % of control and the T/C (dose: 100.0 mg/kg/injection, schedule: Q01DX009 (ip), vehicle: suspension in saline) was 97 % of control.

As to `CN(C)c1ccc(P(=O)(O)O)c(Cl)c1`, the T/C by setting is: (dose: 100.0 mg/kg/injection, schedule: Q01DX001 (ip), vehicle: Klucel (hydroxypropylcellulose) (HPC)) 99 % of control; (dose: 200.0 mg/kg/injection, schedule: Q01DX001 (ip), vehicle: Klucel (hydroxypropylcellulose) (HPC)) 96 % of control; (dose: 400.0 mg/kg/injection, schedule: Q01DX001 (ip), vehicle: Klucel (hydroxypropylcellulose) (HPC)) 96 % of control.

With `CCOC(=O)/C=C(\C)NC1CC(OC2CC(O)(C(=O)CO)Cc3c(O)c4c(c(O)c32)C(=O)c2c(OC)cccc2C4=O)OC(C)C1O` (stereo not given), the T/C reads like this: (dose: 6.25 mg/kg/injection, schedule: Q04DX003 (ip), vehicle: saline with Tween-80) 119 % of control; (dose: 12.5 mg/kg/injection, schedule: Q04DX003 (ip), vehicle: saline with Tween-80) 113 % of control; (dose: 50.0 mg/kg/injection, schedule: Q04DX003 (ip), vehicle: saline with Tween-80) 172 % of control.

`Clc1ccc(N=Cc2cccs2)c(Cl)c1`: the T/C was 118 % of control (dose: 50.0 mg/kg/injection, schedule: Q01DX009 (ip), vehicle: Klucel (hydroxypropylcellulose) (HPC)); 107 % of control (dose: 100.0 mg/kg/injection, schedule: Q01DX009 (ip), vehicle: Klucel (hydroxypropylcellulose) (HPC)); 110 % of control (dose: 200.0 mg/kg/injection, schedule: Q01DX009 (ip), vehicle: Klucel (hydroxypropylcellulose) (HPC)).

Regarding `NC(N)=NC(N)=Nc1c(F)c(F)c(F)c(F)c1F`, the T/C is 107 % of control (dose: 6.25 mg/kg/injection, schedule: Q01DX009 (ip), vehicle: saline with Tween-80); 100 % of control (dose: 12.5 mg/kg/injection, schedule: Q01DX009 (ip), vehicle: saline with Tween-80); 101 % of control and 113 % of control (dose: 25.0 mg/kg/injection, schedule: Q01DX009 (ip), vehicle: saline with Tween-80); 116 % of control (dose: 50.0 mg/kg/injection, schedule: Q01DX009 (ip), vehicle: saline with Tween-80).

As to `C[CH2][Hg][S]c1nsc([S][Hg][CH2]C)n1`, the T/C (dose: 3.13 mg/kg/injection, schedule: Q01DX009 (ip), vehicle: Klucel (hydroxypropylcellulose) (HPC)) was 94 % of control; the T/C (dose: 6.25 mg/kg/injection, schedule: Q01DX009 (ip), vehicle: Klucel (hydroxypropylcellulose) (HPC)) was 118 % of control and 95 % of control; the T/C (dose: 12.5 mg/kg/injection, schedule: Q01DX009 (ip), vehicle: Klucel (hydroxypropylcellulose) (HPC)) is 98 % of control and 115 % of control.

As for `O=NN(CC(=O)OCc1ccccc1)OCc1ccccc1`, the T/C runs as follows: (dose: 12.5 mg/kg/injection, schedule: Q01DX009 (ip), vehicle: other) 101 % of control; (dose: 25.0 mg/kg/injection, schedule: Q01DX009 (ip), vehicle: other) 104 % of control; (dose: 50.0 mg/kg/injection, schedule: Q01DX009 (ip), vehicle: other) 102 % of control; (dose: 100.0 mg/kg/injection, schedule: Q01DX009 (ip), vehicle: other) 108 % of control; (dose: 200.0 mg/kg/injection, schedule: Q01DX009 (ip), vehicle: other) 100 % of control.

Turning to `COc1ccc2ccc(CCC(=O)O)cc2c1`, the T/C by setting is: (dose: 12.5 mg/kg/injection, schedule: Q01DX009 (ip), vehicle: distilled water + Tween-80) 100 % of control; (dose: 25.0 mg/kg/injection, schedule: Q01DX009 (ip), vehicle: distilled water + Tween-80) 100 % of control; (dose: 50.0 mg/kg/injection, schedule: Q01DX009 (ip), vehicle: distilled water + Tween-80) 94 % of control; (dose: 100.0 mg/kg/injection, schedule: Q01DX009 (ip), vehicle: distilled water + Tween-80) 99 % of control; (dose: 200.0 mg/kg/injection, schedule: Q01DX009 (ip), vehicle: distilled water + Tween-80) 108 % of control.

Regarding `O=C(NCc1ccccn1)c1ccccc1`, the T/C is 103 % of control (dose: 50.0 mg/kg/injection, schedule: Q01DX009 (ip), vehicle: saline); 90 % of control (dose: 100.0 mg/kg/injection, schedule: Q01DX009 (ip), vehicle: saline); 100 % of control (dose: 200.0 mg/kg/injection, schedule: Q01DX009 (ip), vehicle: saline).

On to `COc1ccc(C2=C(C#N)C(=O)OCCN2C)cc1`, for which the T/C is, setting by setting: (dose: 60.0 mg/kg/injection, schedule: Q01DX005 (ip), vehicle: saline with Tween-80) 94 % of control; (dose: 120.0 mg/kg/injection, schedule: Q01DX005 (ip), vehicle: saline with Tween-80) 100 % of control; (dose: 240.0 mg/kg/injection, schedule: Q01DX005 (ip), vehicle: saline with Tween-80) 101 % of control.

Turning to `Nc1[nH]c(=S)[nH]c(=S)c1N`, the T/C reads like this: (dose: 100.0 mg/kg/injection, schedule: Q04DX002 (ip), vehicle: saline with Tween-80) 102 % of control; (dose: 200.0 mg/kg/injection, schedule: Q04DX002 (ip), vehicle: saline with Tween-80) 98 % of control; (dose: 400.0 mg/kg/injection, schedule: Q04DX002 (ip), vehicle: saline with Tween-80) 94 % of control.

In the case of `COc1c(OC)c([N+](=O)[O-])c2c(c1[N+](=O)[O-])COC2=O`, the T/C is 104 % of control (dose: 50.0 mg/kg/injection, schedule: Q01DX005 (ip), vehicle: Klucel (hydroxypropylcellulose) (HPC)) and 103 % of control (dose: 100.0 mg/kg/injection, schedule: Q01DX005 (ip), vehicle: Klucel (hydroxypropylcellulose) (HPC)).

On to `CC(=O)C1CC2CN(C(=O)OCC(Cl)(Cl)Cl)C1C=C2c1ccccc1` (stereo not given), for which the T/C is, setting by setting: (dose: 100.0 mg/kg/injection, schedule: Q04DX002 (ip), vehicle: saline) 91 % of control; (dose: 200.0 mg/kg/injection, schedule: Q04DX002 (ip), vehicle: saline) 94 % of control; (dose: 400.0 mg/kg/injection, schedule: Q04DX002 (ip), vehicle: saline) 94 % of control.

`CC[C@@H]1CN2CCc3c([nH]c4ccccc34)[C@@](C(=O)OC)(c3cc4c(cc3OC)N(C)[C@H]3[C@@](O)(C(=O)OC)[C@H](OC(C)=O)[C@]5(CC)C=CCN6CC[C@]43[C@@H]65)C[C@H](C2)[C@H]1O`: the T/C reads like this: (dose: 1.0 mg/kg/injection, schedule: Q01DX001 (ip), vehicle: water) 115 % of control; (dose: 2.0 mg/kg/injection, schedule: Q01DX001 (ip), vehicle: water) 115 % of control; (dose: 4.0 mg/kg/injection, schedule: Q01DX001 (ip), vehicle: water) 117 % of control and 118 % of control; (dose: 32.0 mg/kg/injection, schedule: Q01DX001 (ip), vehicle: water) 174 % of control; (dose: 64.0 mg/kg/injection, schedule: Q01DX001 (ip), vehicle: water) 150 % of control and 174 % of control.

With `NC(CCCOS(=O)(=O)O)Cc1ccc2ccccc2c1` (stereo not given), the T/C is, setting by setting: under setting [1], 100 % of control; under setting [2], 100 % of control; under setting [3], 94 % of control.

For the compound `CC1=C(C)C(=O)c2nn(C)nc2C1=O`, the T/C is, setting by setting: (dose: 6.25 mg/kg/injection, schedule: Q01DX001 (ip), vehicle: saline) 100 % of control; (dose: 12.5 mg/kg/injection, schedule: Q01DX001 (ip), vehicle: saline) 98 % of control; (dose: 25.0 mg/kg/injection, schedule: Q01DX001 (ip), vehicle: saline) 99 % of control.

As for `Clc1ccc(C2C3CCN2CC3)cc1` (stereo not given), the T/C is 100 % of control (dose: 0.78 mg/kg/injection, schedule: Q01DX009 (ip), vehicle: saline); 96 % of control (dose: 1.56 mg/kg/injection, schedule: Q01DX009 (ip), vehicle: saline); 94 % of control (dose: 3.12 mg/kg/injection, schedule: Q01DX009 (ip), vehicle: saline).

As to `Cn1cc(/C=C/[N+](=O)[O-])c2ccc(OCc3ccccc3)cc21`, the T/C under setting [1] is 105 % of control, the T/C under setting [2] is 95 % of control and the T/C under setting [3] was 97 % of control.
